# Measured values reported in ChEMBL document CHEMBL1201862, “PubChem BioAssay data set” (2004).
# The source made the active and inactive calls.
# Columns and labels:
# [1] = AlphaScreen signal interference compounds, dose response, artefact control for ARNT-TACC3 interaction inhibitor project, biochemical, luminescence, cherry-pick (AID 651705); assay type: functional;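 further: AlphaScreen bead proximity signal that flags compounds interfering with the detection technology; potency reflects signal decrease which marks the compound as an assay artifact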
# [2] = molecular target: T1, Orexin/Hypocretin receptor type 1 (Homo sapiens, UniProt O43613); experiment: Homogeneous Time Resolved Fluorescence (HTRF)-based cell-based high throughput dose response assay for antagonists of the orexin 1 receptor (OX1R; HCRTR1). [Related pubchem assays (depositor defined):AID434989, AID435008, AID463079, AID485270, AID492963, AID492964, AID492965, AID493232, AID504717, AID504718]; assay type: functional
# T1 sequence (O43613 whole entry): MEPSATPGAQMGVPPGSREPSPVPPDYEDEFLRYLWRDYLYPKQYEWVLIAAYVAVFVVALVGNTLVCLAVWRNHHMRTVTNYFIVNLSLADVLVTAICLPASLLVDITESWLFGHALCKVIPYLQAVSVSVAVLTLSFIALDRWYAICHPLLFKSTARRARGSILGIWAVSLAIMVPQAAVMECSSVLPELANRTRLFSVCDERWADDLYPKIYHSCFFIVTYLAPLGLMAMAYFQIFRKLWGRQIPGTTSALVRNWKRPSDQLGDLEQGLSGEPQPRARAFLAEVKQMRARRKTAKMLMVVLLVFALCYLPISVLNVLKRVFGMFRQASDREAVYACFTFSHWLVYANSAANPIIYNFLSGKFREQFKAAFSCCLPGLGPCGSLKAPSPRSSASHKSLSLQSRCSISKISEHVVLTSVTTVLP
# [3] = Counterscreen for antagonists of the orexin 1 receptor (OX1R; HCRTR1): Fluorescence-based cell-based high throughput dose response assay to identify antagonists of the parental CHO cell line. [Related pubchem assays (depositor defined):AID434989, AID435008, AID463079, AID485270, AID492963, AID492964, AID492965, AID493232, AID504699, AID504701]; assay type: functional
# [4] = molecular target: T1, Orexin/Hypocretin receptor type 1; experiment: Fluorescence-based cell-based high throughput dose response assay for antagonists of the orexin 1 receptor (OX1R; HCRTR1). [Related pubchem assays (depositor defined):AID434989, AID435008, AID463079, AID485270, AID492963, AID492964, AID492965, AID493232, AID504717, AID504718]; assay type: functional
# Orexin receptor type 2 [5] = molecular target: T2, Orexin receptor type 2 (Homo sapiens, UniProt O43614); experiment: Counterscreen assay for antagonists of the orexin 1 receptor (OX1R; HCRTR1): Fluorescence-based cell-based dose response assay for antagonists of the orexin 2 receptor (OX2R; HCRTR2), run by assay provider.; assay type: functional
# T2 sequence (O43614 whole entry): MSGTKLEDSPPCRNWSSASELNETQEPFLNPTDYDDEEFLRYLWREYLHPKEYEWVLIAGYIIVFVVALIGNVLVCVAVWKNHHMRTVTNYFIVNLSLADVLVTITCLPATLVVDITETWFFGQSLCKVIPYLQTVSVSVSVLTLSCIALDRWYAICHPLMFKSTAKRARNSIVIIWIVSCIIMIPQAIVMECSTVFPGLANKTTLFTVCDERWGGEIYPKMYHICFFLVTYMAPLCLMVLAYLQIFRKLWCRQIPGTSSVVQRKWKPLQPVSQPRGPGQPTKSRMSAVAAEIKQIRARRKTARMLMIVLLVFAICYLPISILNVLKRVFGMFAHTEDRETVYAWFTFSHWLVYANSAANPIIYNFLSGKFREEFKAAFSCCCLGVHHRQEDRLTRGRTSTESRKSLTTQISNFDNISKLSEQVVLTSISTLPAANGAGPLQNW
# CHO-K1 = experiment: Counterscreen for antagonists of the orexin 1 receptor (OX1R; HCRTR1): Homogeneous time resolved fluorescence (HTRF)-based cell-based dose response assay to identify antagonists of the parental CHO-K1 cell line. [Related pubchem assays (depositor defined):AID434989, AID435008, AID463079, AID485270, AID492963, AID492964, AID492965, AID493232, AID504699, AID504701]; assay type: functional; conditions: Cricetulus griseus;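 further: potency for inhibition of ATP-stimulated IP1 production as antagonists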
# Orexin receptor type 2 [6] = molecular target: T2, Orexin receptor type 2; experiment: Counterscreen assay for antagonists of the orexin 1 receptor (OX1R; HCRTR1): Homogeneous Time Resolved Fluorescence (HTRF)-based cell-based dose response assay for antagonists of the orexin 2 receptor (OX2R; HCRTR2), run by assay provider.; assay type: functional
# [7] = Luminescence Cell-Based Dose Response HTS to Identify Activators of Luciferase Translation or Activity in H4 […] Cells. [Related pubchem assays: 1829 (Project Summary), 1814 (Primary HTS)]; assay type: functional
# cells [8] = assay type: functional, cell-based
# cells [9] = assay type: functional, cell-based; remark: listed apart in the source
# H4 = experiment: Luminescence Cell-Based Dose Response HTS to Identify Activators of 5'UTR Stem-Loop Driven Prion Protein mRNA Translation in H4 Neuroglioblastoma Cells. [Related pubchem assays: 1829 (Project Summary), 1814 (Primary HTS)]; assay type: functional; conditions: Homo sapiens
# [10] = molecular target: ADP-ribosylation factor GTPase-activating protein 1 (Rattus norvegicus, UniProt Q62848); experiment: Fluorescence polarization-based biochemical high throughput dose response screening assay to identify inhibitors of ADP-ribosylation factor GTPase activating protein 1 (ARFGAP1).; assay type: functional
# [11] = Luminescence Cell-Based Dose Confirmation HTS to Identify Activators of 5'UTR Stem-Loop Driven Alpha-Synuclein mRNA Translation in H4 Neuroglioblastoma Cells. [Related pubchem assays: 1829 (Project Summary), 1814 (Primary HTS)]; assay type: functional
# [12] = molecular target: Nuclear receptor subfamily 5 group A member 2 (Homo sapiens, UniProt O00482); assay type: functional, cell-based;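 further: HEK293T cells transfected with LRH-1 and a StAR promoter luciferase reporter; potency for inhibitors that lower LRH-1 driven reporter light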
# [13] = StAR promoter reporter inhibition counter-screen, dose response, counter-screen for LRH-1 inverse agonist project, cell-based, luminescence, luciferase reporter (AID 651969); assay type: functional
# Steroidogenic factor 1 = Steroidogenic factor 1 (Homo sapiens, UniProt Q13285); experiment: Counterscreen for inverse agonists of the liver receptor homolog-1 (LRH-1; NR5A2): Luminescence-based cell-based high throughput dose response assay to identify inverse agonists of the Steroidogenic Factor 1 Nuclear Receptor (SF1; NR5A1).; assay type: functional
# Beta-lactamase [14] = molecular target: Beta-lactamase (Salmonella choleraesuis (strain SC-B67), UniProt Q5J463)
# Beta Lactamase [15] = molecular target: T3, Beta Lactamase (Pseudomonas aeruginosa, UniProt Q932Y6);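 further: confirmatory high-throughput screen measuring VIM-2 metallo-beta-lactamase inhibition by epi-absorbance in dose response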
# Beta-lactamase [16] = molecular target: Beta-lactamase (Pseudomonas aeruginosa, UniProt Q79MP6);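 further: biochemical dose-response test of metallo-beta-lactamase enzyme inhibition, read out by epi-absorbance; purified recombinant IMP-1 metallo-beta-lactamase with nitrocefin as substrate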
# [17] = molecular target: Peroxisome proliferator-activated receptor gamma/Nuclear receptor coactivator 2 (Homo sapiens, UniProt P37231); assay type: functional;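 further: agonist potency for raising coactivator recruitment to the receptor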
# [18] = molecular target: T4, Probable nicotinate-nucleotide adenylyltransferase (Staphylococcus aureus (strain N315), UniProt P65502); assay type: functional, Staphylococcus aureus subsp. aureus N315; conditions: read-out: IC50_Mean;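 on IC50 Mean: confirmatory dose-response retesting of NadD inhibitor hits first found in an ultra-high-throughput screen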
# [19] = molecular target: Disintegrin and metalloproteinase domain-containing protein 17 (Homo sapiens, UniProt P78536); experiment: ADAM17 protease inhibitors, dose response, counter-screen for ADAM10 exosite inhibitor project, biochemical, quenched FRET substrate (AID 743253)
# [20] = molecular target: T4, Probable nicotinate-nucleotide adenylyltransferase; assay type: functional, Staphylococcus aureus subsp. aureus N315
# [21] = molecular target: Peroxisome proliferator-activated receptor gamma/Nuclear receptor coactivator 3 (Homo sapiens, UniProt P37231); assay type: functional;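 further: agonist potency for raising coactivator recruitment to the receptor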
# [22] = molecular target: Peroxisome proliferator-activated receptor gamma/Nuclear receptor coactivator 1 (Homo sapiens, UniProt P37231); assay type: functional;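 further: agonist potency as compounds enhance coactivator SRC-1 recruitment to PPARgamma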
# [23] = ADAM10 inhibitors, peptide cleavage, dose response, biochemical, QFRET (AID 743254);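 further: ADAM10 enzyme with the DM2 quenched FRET peptide as substrate; EDANS fluorescence gain as the protease cuts the substrate; inhibitor potency against ADAM10 proteolytic activity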
# [24] = molecular target: Neurotensin receptor type 1 (Homo sapiens, UniProt P30989); assay type: functional;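 further: Image-based confirmatory dose-response assay measuring agonist activity at NTR1; NTR1-expressing U2OS osteosarcoma cells imaged for beta-arrestin GFP spot formation; agonist potency where compounds increase beta-arrestin recruitment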
# Protein Wnt-3a = Protein Wnt-3a (Mus musculus, UniProt P27467); experiment: Wnt3a-driven reporter signaling inhibition, dose response, selectivity assay for Gli-SUFU antagonist project, Wnt-LIGHT cells, luminescence (AID 651570); assay type: functional; conditions: read-out: IC50_Mean;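 further: Wnt-LIGHT reporter cells stimulated with conditioned medium from Wnt3a-producing cells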
# [25] = Luminescence Cell-Based Dose Retest to Confirm Inhibitors of Cancer Stem Cells. [Related pubchem assays (depositor defined):AID2717, AID2721]; assay type: functional; conditions: Homo sapiens
# [26] = HepG2 cell cytotoxicity, dose response, cytotoxicity control for Shn3 inhibitor project, CellTiter-Glo, cherry-picked (AID 624134); assay type: functional, cell-based
# [27] = Shn3 3'UTR reporter inhibitors, dose response, cell-based, Clone20 osteoblasts, firefly luciferase, cherry-picked (AID 624132); assay type: functional;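 further: firefly luciferase luminescence from reporter carrying the Shn3 3'UTR in osteoblasts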
# [28] = control 3'UTR Renilla luciferase suppression, dose response, counter-screen for Shn3 inhibitor project, cell-based, Clone20-Shn3RL, cherry-picked (AID 624133); assay type: functional
# [29] = molecular target: Aryl hydrocarbon receptor (Homo sapiens, UniProt P35869); conditions: Potency;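 further: confirmatory quantitative high-throughput screen measuring activation of the AhR signaling pathway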
# [30] = molecular target: FAD-linked sulfhydryl oxidase ALR (Homo sapiens, UniProt P55789); experiment: inhibitors of human ALR sulfhydryl oxidase, dose response, biochemical, H2O2 detection, luminescence, cherry-pick (AID 493248)
# [31] = molecular target: DNA repair protein RAD52 homolog (Homo sapiens, UniProt P43351); assay type: functional, biochemical
# [32] = molecular target: DNA repair and recombination protein RAD54-like (Homo sapiens, UniProt Q92698); experiment: inhibitors of human RAD54 branch migration, confirmation, biochemical, fluorescence, cherry-picked samples, dose series (AID 651657); assay type: functional
# [33] = molecular target: T5, Mitochondrial peptide methionine sulfoxide reductase (Bos taurus, UniProt P54149); assay type: functional;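 further: absorbance read-out, biochemical high-throughput dose-response screen for MsrA inhibitors, confirmatory; recombinant bovine MsrA coupled to E. coli TrxB with NADPH and selenocystamine; potency is for inhibitors of MsrA activity on DMSO substrate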
# T5 sequence (P54149 whole entry): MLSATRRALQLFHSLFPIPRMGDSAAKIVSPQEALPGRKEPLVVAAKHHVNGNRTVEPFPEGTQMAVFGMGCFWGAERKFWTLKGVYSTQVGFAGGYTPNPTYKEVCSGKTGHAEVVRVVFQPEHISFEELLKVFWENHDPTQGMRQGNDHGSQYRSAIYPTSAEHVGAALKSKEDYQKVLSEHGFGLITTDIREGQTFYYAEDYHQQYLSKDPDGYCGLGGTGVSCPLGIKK
# Beta Lactamase [34] = molecular target: T3, Beta Lactamase; experiment: beta-lactamase reporter inhibitor potency, dose response, artefact control for NOD2-RIPK2 interaction inhibitor project, BLA reporter cells, FRET fluorescence (AID 651552); assay type: functional, cell-based
# [35] = non-specific cell cytotoxicity, dose response, cytotoxicity control for PAX8 inhibitor project, plate reader, dry powder samples (AID 743021); assay type: functional, cell-based
# [36] = Fluorescence-based cell-based high throughput dose response assay for inhibitors of the interaction of nucleotide-binding oligomerization domain containing 2 (NOD2) and the receptor-interacting serine-threonine kinase 2 (RIPK2).; assay type: functional; conditions: Homo sapiens
# Vero = experiment: cells; assay type: functional; conditions: Chlorocebus sabaeus
# Paired box protein Pax-8 = Paired box protein Pax-8 (Homo sapiens, UniProt Q06710); experiment: inhibitors of PAX8-driven TPO luciferase reporter, dose response, RMG-I cells, cherry-pick (AID 687027); assay type: functional, cell-based;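 further: luciferase reporter driven by Pax8 target thyroperoxidase promoter measured by SteadyGlo luminescence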
# [37] = molecular target: Heat shock protein HSP 90-alpha (Homo sapiens, UniProt P07900); assay type: functional, organism-based
# T4 sequence (P65502 whole entry, the tested form may be a part): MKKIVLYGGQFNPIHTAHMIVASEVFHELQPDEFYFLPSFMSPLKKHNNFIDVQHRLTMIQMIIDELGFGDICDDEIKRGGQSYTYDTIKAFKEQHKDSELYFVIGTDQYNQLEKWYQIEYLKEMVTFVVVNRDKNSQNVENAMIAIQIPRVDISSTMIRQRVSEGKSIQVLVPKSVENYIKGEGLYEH
# T3 sequence (Q932Y6 whole entry): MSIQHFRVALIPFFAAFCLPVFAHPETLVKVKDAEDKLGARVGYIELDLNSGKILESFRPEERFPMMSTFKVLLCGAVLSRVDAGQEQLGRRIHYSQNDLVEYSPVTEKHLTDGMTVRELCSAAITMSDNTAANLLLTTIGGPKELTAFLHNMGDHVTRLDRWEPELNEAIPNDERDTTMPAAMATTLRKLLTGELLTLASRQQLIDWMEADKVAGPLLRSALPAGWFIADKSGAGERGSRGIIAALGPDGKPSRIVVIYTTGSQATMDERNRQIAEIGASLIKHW
# DNA repair and recombination protein RAD54-like, sequence (Q92698 whole entry): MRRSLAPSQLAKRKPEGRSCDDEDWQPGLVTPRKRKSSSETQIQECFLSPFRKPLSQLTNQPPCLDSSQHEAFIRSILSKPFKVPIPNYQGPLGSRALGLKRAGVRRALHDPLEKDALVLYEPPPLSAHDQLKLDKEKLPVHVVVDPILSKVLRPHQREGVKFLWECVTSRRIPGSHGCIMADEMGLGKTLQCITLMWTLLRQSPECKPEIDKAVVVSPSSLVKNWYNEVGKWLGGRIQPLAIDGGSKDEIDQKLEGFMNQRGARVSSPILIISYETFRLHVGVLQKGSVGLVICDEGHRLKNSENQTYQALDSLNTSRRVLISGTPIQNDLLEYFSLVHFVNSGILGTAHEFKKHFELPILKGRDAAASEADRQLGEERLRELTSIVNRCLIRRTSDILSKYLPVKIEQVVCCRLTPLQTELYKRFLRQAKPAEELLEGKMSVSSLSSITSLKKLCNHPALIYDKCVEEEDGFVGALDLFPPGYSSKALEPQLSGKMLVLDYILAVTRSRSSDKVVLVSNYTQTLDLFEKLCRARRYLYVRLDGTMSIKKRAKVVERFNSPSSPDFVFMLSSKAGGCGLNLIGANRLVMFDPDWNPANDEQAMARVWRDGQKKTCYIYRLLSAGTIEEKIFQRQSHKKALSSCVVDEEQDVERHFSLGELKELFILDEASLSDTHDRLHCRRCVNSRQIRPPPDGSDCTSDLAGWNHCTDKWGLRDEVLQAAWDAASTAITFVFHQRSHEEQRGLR
# Disintegrin and metalloproteinase domain-containing protein 17, sequence (P78536 whole entry, the tested form may be a part): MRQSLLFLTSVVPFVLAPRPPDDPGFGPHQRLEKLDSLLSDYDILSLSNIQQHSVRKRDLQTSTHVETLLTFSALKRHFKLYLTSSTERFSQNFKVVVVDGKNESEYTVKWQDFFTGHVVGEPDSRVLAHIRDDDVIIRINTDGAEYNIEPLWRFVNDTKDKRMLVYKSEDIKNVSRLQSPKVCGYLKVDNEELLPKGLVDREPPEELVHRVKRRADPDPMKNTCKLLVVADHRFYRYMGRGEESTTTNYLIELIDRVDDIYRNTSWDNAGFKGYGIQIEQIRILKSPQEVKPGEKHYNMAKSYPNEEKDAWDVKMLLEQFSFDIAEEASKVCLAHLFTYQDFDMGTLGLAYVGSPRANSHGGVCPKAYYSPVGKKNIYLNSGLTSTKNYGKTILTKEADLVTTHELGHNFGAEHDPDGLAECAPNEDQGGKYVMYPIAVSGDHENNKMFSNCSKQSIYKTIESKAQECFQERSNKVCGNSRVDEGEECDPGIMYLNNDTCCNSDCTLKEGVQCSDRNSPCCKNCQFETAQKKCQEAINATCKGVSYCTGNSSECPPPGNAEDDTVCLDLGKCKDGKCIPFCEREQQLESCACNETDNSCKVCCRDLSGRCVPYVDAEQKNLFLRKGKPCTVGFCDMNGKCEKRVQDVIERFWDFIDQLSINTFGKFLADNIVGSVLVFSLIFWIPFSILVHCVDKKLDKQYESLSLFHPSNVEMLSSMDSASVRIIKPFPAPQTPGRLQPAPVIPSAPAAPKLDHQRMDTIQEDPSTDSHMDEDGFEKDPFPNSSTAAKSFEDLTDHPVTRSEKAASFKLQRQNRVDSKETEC
# Paired box protein Pax-8, sequence (Q06710 whole entry): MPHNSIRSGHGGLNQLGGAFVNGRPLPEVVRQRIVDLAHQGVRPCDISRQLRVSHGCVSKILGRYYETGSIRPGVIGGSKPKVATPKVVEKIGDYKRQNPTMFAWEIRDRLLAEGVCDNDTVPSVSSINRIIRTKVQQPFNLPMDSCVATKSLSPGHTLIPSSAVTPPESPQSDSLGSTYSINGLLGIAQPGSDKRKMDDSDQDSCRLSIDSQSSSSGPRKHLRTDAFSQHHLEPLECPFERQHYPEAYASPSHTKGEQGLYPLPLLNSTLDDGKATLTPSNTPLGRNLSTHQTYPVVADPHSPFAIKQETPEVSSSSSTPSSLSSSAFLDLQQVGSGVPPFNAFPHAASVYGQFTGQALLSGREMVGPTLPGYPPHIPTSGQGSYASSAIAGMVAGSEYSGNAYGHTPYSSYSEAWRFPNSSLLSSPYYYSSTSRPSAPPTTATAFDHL
# FAD-linked sulfhydryl oxidase ALR, sequence (P55789 whole entry): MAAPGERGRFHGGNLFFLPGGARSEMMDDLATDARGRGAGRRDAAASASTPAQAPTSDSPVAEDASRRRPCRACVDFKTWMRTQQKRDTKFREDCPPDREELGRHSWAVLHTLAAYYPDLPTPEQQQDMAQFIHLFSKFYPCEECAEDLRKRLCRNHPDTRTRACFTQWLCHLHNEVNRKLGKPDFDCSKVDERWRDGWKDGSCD
# ADP-ribosylation factor GTPase-activating protein 1, sequence (Q62848 whole entry): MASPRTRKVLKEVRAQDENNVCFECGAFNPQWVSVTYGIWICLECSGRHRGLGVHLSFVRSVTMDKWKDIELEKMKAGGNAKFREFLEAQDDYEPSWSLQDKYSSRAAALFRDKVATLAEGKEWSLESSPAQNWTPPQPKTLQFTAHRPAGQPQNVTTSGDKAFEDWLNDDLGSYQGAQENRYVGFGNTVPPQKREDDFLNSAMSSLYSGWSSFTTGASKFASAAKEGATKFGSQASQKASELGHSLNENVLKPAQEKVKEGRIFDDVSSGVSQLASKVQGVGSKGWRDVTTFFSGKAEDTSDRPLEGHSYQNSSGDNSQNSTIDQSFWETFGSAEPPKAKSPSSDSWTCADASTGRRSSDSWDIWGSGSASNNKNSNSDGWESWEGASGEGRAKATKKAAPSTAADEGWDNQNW
# Aryl hydrocarbon receptor, sequence (P35869 whole entry): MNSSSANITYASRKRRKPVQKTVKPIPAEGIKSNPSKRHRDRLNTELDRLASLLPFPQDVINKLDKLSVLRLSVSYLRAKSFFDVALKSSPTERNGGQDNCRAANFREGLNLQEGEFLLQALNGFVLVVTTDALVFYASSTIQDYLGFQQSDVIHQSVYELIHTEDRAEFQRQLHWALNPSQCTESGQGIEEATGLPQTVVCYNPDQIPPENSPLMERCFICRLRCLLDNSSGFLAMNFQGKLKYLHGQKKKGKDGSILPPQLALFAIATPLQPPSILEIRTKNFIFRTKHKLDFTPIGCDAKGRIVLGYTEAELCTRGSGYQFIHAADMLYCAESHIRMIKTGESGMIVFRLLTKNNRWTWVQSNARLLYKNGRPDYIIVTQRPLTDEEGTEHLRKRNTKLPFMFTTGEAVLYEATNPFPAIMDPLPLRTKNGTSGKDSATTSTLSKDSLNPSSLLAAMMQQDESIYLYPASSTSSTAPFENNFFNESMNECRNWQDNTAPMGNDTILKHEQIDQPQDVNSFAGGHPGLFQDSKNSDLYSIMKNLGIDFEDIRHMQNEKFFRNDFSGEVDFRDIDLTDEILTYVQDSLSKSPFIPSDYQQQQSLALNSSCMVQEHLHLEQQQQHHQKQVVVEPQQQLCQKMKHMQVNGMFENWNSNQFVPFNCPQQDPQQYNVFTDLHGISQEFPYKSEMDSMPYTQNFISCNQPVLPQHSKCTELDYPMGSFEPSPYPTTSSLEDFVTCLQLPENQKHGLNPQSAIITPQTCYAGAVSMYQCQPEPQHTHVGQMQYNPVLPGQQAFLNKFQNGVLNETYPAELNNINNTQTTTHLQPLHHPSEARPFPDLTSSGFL
# Neurotensin receptor type 1, sequence (P30989 whole entry): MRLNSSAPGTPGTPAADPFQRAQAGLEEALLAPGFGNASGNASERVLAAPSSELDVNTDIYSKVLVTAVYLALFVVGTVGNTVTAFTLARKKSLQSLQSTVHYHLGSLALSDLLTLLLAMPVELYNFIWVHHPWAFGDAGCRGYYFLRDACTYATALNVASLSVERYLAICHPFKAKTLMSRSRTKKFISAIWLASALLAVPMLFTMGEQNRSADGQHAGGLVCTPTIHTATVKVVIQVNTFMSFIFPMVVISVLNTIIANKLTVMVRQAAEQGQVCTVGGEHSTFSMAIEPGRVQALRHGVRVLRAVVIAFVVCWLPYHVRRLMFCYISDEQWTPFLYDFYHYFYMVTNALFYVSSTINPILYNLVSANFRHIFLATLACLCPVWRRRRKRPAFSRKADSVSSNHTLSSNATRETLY
# DNA repair protein RAD52 homolog, sequence (P43351 whole entry): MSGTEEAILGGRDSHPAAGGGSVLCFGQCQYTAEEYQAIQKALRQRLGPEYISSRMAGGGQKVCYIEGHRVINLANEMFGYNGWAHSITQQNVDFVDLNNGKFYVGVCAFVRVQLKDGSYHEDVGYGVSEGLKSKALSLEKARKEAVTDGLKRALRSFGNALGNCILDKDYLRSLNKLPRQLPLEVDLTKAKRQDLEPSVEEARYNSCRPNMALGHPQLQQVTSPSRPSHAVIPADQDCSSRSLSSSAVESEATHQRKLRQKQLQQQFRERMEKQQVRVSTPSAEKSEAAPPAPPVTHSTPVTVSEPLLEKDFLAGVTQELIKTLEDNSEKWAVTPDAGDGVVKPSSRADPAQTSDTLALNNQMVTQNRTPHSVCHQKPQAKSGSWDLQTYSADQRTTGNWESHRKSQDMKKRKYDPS
compound,measurement,setting,value
CC(=O)OC[C@H]1O[C@@H](Sc2cccc3cccnc23)[C@H](OC(C)=O)[C@@H](OC(C)=O)[C@H]1OC(C)=O,AC50,[1],91.4 µM (active)
CC(NC(C)c1ccccc1Cl)C(=O)Nc1cccc(S(=O)(=O)N2CCCCC2)c1 (centres undefined),IC50,[2],0.238 µM (active)
same,IC50,[3],48.8 µM (inactive)
same,IC50,[4],3.25 µM (active)
same,IC50,Orexin receptor type 2 [5],18.9 µM (inactive)
same,IC50,CHO-K1,> 66.2 µM (inactive)
same,IC50,Orexin receptor type 2 [6],> 50 µM (inactive)
Cc1ccc2nc(SCC(=O)c3ccccc3)nc(=O)n2c1,EC50,[7],11 µM (active)
same,EC50,cells [8],37.8 µM (active)
same,EC50,cells [9],> 350 µM (not active)
same,EC50,H4,24 µM (active)
same,IC50,[10],52.5 µM (inactive)
same,EC50,[11],33.8 µM (active)
Cc1cccc(NC(=O)COC(=O)CN2C(=O)c3ccccc3C2=O)c1C,IC50,[12],46.7 µM (inactive)
same,IC50,[13],35.9 µM (inactive)
same,IC50,Steroidogenic factor 1,5.33 µM (active)
O=C1C2C(c3ccccc3)C=CC(c3ccccc3)C2C(=O)N1c1ccncc1 (centres undefined),IC50,Beta-lactamase [14],> 59.6 µM (inactive)
same,IC50,Beta Lactamase [15],62.4 µM (inactive)
same,IC50,Beta-lactamase [16],14.6 µM (inactive)
O=C(CSc1ccc(Br)c2cccc(Cl)c12)Nc1ccc(S(=O)(=O)Nc2nccs2)cc1,EC50,[17],28.6 µM (not active)
same,IC50,[2],1.43 µM (active)
same,IC50,[18],25.8 µM (active)
same,IC50,[3],> 49.8 µM (inactive)
same,IC50,[4],4.31 µM (active)
same,IC50,[19],> 69.5 µM (inactive)
same,IC50,Orexin receptor type 2 [5],31.5 µM (inactive)
same,IC50,[20],6.53 µM (active)
same,EC50,[21],84.2 µM (not active)
same,IC50,CHO-K1,> 66.2 µM (inactive)
same,EC50,[22],61 µM (not active)
same,IC50,Orexin receptor type 2 [6],> 50 µM (inactive)
same,IC50,[23],> 69.5 µM (inactive)
CCCCNc1c(-c2ccc(OC)c(Sc3ccc(OC)cc3)c2)nc2ccccn12,EC50,[24],32.2 µM (inactive)
same,IC50,Protein Wnt-3a,11.5 µM (active)
same,AC50,[25],6 µM (active)
same,AC50,[26],48.4 µM (active)
same,AC50,[27],0.821 µM (active)
same,AC50,[28],4.38 µM (active)
COC(=O)Nc1cccc(OC(=O)Nc2cccc(C)c2)c1,AC50,[29],39.8 µM (inconclusive)
COc1ccc(Nc2c3ccccc3nc3ccccc23)cc1,AC50,[30],0.016 µM (active)
same,AC50,[31],1.9 µM (active)
same,AC50,[32],7.04 µM (active)
COC1C(OC(=O)/C=C/C=C/C=C/C=C/C(=O)O)CCC2(CO2)C1C1(C)OC1CC=C(C)C.c1ccc(Nc2ccccc2)cc1 (centres undefined),IC50,[33],94.5 µM (inactive)
COC(=O)C1=C(C(=O)OC)C2OC1c1cc3ccccc3cc12,IC50,Beta Lactamase [34],10.1 µM (inactive)
same,AC50,[35],23 µM (active)
same,IC50,[36],1.63 µM (active)
same,CC50,Vero,> 25 µM (active)
same,AC50,Paired box protein Pax-8,5.41 µM (active)
same,AC50,[37],1.59 µM (active)
